Test results published in patent US9957209B2, “Use of quinone methides as antipolymerants for vinylic monomers” (Ecolab USA Inc., priority 2015, dated 2018).

Assay: Static antipolymerant screening: polystyrene formed in heated, inhibitor-free styrene (ASTM D2121 methanol precipitation, absorbance at 420 nm)
Conditions: 0.33 mmolal antipolymerant in styrene, 122° C., anaerobic
Method: The antipolymerant performance of the isolated cinnamyl quinone methide, 2,6-di-tert-butyl-4-(3-phenylallylidene)cyclohexa-2,5-dienone (7-Cinn-QM), was determined using the static method whereby a 0.31 mM (0.33 mmolal) solution of the retarder was prepared in inhibitor-free styrene. To start with, 4-tert-butylcatechol (TBC) was removed by eluting styrene through alumina. To prepare a 0.31 mM solution of 7-Cinn-QM, 0.0264 g were dissolved in freshly de-inhibited styrene to give a solution of 250 grams. Into twenty-four Ace Glass #15 threaded pressure tubes equipped with PTFE screw caps and fluoroelastomer (FETFE) O-rings, 9 mL of the solution were charged into each tube. To purge as much oxygen out of the solutions as possible, each solution was sparged with nitrogen for 2 minutes. Immediately after sparging each solution, the tube was sealed and the solution kept under a nitrogen gas overhead. […] After 30 minutes, and every 15 minutes thereafter, four tubes were retrieved from the block and the polymerization reaction quenched by cooling in an ice bath. The cooled polymer solutions were immediately diluted with toluene.
To measure the amount of polymer formed, methanol was used to precipitate the polymer in accordance with the ASTM D2121 method. The absorbance of the polymer-methanol admixtures were measured at 420 nm. Using a calibration curve, the polymer concentrations in each of the tubes was measured and the four data points for each time were averaged.
For comparative purpose, 0.0243 g of 7-Ph-QM were dissolved in 350 g of inhibitor-free styrene after which the antipolymerant performance was tested according to the procedure in Example 3.
Similarly, a styrene solution comprising 0.155 mmolal of 7-Ph-QM and 0.155 mmolal of 7-Cinn-QM was used to screen the performance of the combination in accordance with the procedure in Example 3.

Question: Which “Polystyrene (%)” value (Time 30) does the source give for 7-Phenyl Quinone Methide [7-Ph-QM] here?
Answer: 0.13%

Question: And the “Polystyrene (%)” value (Time 45)?
Answer: 0.49%

Question: And the “Polystyrene (%)” value (Time 60)?
Answer: 0.89%

Question: And the “Polystyrene (%)” value (Time 75)?
Answer: 1.08%

Question: And the “Polystyrene (%)” value (Time 90)?
Answer: 1.37%

Question: What about the “Polystyrene (%)” value (Time 105) of the same compound?
Answer: 1.56%

Question: And the “Polystyrene (%)” value (Time 120)?
Answer: 2.4%

Question: What about the “Polystyrene (%)” value (Time 135) of the same compound?
Answer: 3.4%

Question: Which “Polystyrene (%)” value (Time 30) does the source give for CC(C)(C)C1=CC(=CC=Cc2ccccc2)C=C(C(C)(C)C)C1=O [7-Cinn-QM, 2,6-di-tert-butyl-4-(3-phenylallylidene)cyclohexa-2,5-dienone] here?
Answer: 0.05%

Question: And the “Polystyrene (%)” value (Time 45)?
Answer: 0.20%

Question: What about the “Polystyrene (%)” value (Time 60) of the same compound?
Answer: 0.41%

Question: What about the “Polystyrene (%)” value (Time 75) of the same compound?
Answer: 0.88%

Question: What about the “Polystyrene (%)” value (Time 90) of the same compound?
Answer: 1.54%

Question: What about the “Polystyrene (%)” value (Time 105) of the same compound?
Answer: 3.39%

Question: What about the “Polystyrene (%)” value (Time 120) of the same compound?
Answer: 5.13%

Question: What about the “Polystyrene (%)” value (Time 135) of the same compound?
Answer: 7.07%
